# Results as given in ChEMBL document CHEMBL5352410, “Discovery of novel selenium-containing azole derivatives as antifungal agents by exploiting the hydrophobic cleft of CYP51” (Eur J Med Chem, 2022).
# Tests used:
# Nakaseomyces glabratus = experiment: Antifungal activity against Candida glabrata by CLSI based broth microdilution method; type: functional
# [1] = target: T1, Lanosterol 14-alpha demethylase (Candida albicans (strain SC5314 / ATCC MYA-2876) (Yeast), UniProt P10613); experiment: Inhibition of CYP51 of Candida albicans ATCC SC5314 assessed as increase in obtusifoliol level at 8 ug/ml incubated for 16 hrs by GC-MS analysis (reference value: 0 %); set-up: scale not given: the % may be the effect or the level left; conditions: at 8 µg/mL
# T1 sequence (P10613 whole entry): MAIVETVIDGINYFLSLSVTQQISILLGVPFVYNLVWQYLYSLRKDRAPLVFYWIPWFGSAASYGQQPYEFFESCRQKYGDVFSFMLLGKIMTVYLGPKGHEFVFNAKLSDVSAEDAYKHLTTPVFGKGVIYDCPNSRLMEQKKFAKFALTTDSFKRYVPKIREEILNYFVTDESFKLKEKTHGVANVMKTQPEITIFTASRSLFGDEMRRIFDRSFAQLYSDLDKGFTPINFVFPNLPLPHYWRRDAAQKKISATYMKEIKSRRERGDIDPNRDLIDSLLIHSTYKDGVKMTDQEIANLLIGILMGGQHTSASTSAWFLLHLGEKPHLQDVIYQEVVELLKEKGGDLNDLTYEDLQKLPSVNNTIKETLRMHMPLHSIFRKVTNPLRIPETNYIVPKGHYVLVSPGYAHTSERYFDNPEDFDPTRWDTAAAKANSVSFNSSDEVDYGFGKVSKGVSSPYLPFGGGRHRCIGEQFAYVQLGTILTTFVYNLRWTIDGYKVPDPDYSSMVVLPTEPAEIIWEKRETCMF
# Candida albicans [2] = experiment: Fungicidal activity against Candida albicans; type: functional
# Candida albicans [3] = experiment: Fungicidal activity against FCZ-resistant Candida albicans 17#; type: functional
# [4] = target: T1, Lanosterol 14-alpha demethylase; experiment: Inhibition of CYP51 of Candida albicans ATCC SC5314 assessed as decrease in ergosterol level by measuring residual activity at 8 ug/ml incubated for 16 hrs by GC-MS analysis (reference value: 98.3 %); conditions: at 8 µg/mL
# Candida albicans [5] = experiment: Fungicidal activity against FCZ-resistant Candida albicans 632; type: functional
# Candida albicans [6] = experiment: Antibiofilm activity against Candida albicans SC5314 assessed as sessile minimum inhibitory concentration measured after 3 hrs by XTT assay; type: functional
# [7] = target: T1, Lanosterol 14-alpha demethylase; experiment: Inhibition of CYP51 of Candida albicans ATCC SC5314 assessed as increase in obtusifoliol level at 1 ug/ml incubated for 16 hrs by GC-MS analysis (reference value: 0 %); set-up: scale not given: the % may be the effect or the level left; conditions: at 1 µg/mL
# Pichia kudriavzevii = experiment: Antifungal activity against Pichia kudriavzevii by CLSI based broth microdilution method; type: functional
# Candida albicans [8] = experiment: Antifungal activity against FCZ-resistant Candida albicans CaR by CLSI based broth microdilution method; type: functional
# [9] = target: T1, Lanosterol 14-alpha demethylase; experiment: Inhibition of CYP51 of Candida albicans ATCC SC5314 assessed as increase in lanosterol level at 2 ug/ml incubated for 16 hrs by GC-MS analysis (reference value: 1.7 %); set-up: scale not given: the % may be the effect or the level left; conditions: at 2 µg/mL
# Candida albicans [10] = experiment: Antibiofilm activity against Candida albicans SC5314 assessed as sessile minimum inhibitory concentration measured after 1.5 hrs by XTT assay; type: functional
# Candida albicans [11] = experiment: Fungicidal activity against Candida albicans sc5314; type: functional
# Aspergillus fumigatus = experiment: Antifungal activity against Aspergillus fumigatus by CLSI based broth microdilution method; type: functional
# Candida albicans [12] = experiment: Antifungal activity against Candida albicans sc5314 by CLSI based broth microdilution method; type: functional
# [13] = target: T1, Lanosterol 14-alpha demethylase; experiment: Inhibition of CYP51 of Candida albicans ATCC SC5314 assessed as decrease in ergosterol level by measuring residual activity at 1 ug/ml incubated for 16 hrs by GC-MS analysis (reference value: 98.3 %); conditions: at 1 µg/mL
# Candida albicans [14] = experiment: Antifungal activity against FCZ-resistant Candida albicans 904 by CLSI based broth microdilution method; type: functional
# Candida parapsilosis = experiment: Antifungal activity against Candida parapsilosis by CLSI based broth microdilution method; type: functional; conditions: Lodderomyces parapsilosis
# [15] = target: T1, Lanosterol 14-alpha demethylase; experiment: Inhibition of CYP51 of Candida albicans ATCC SC5314 assessed as decrease in ergosterol level by measuring residual activity at 4 ug/ml incubated for 16 hrs by GC-MS analysis (reference value: 98.3 %); conditions: at 4 µg/mL
# Cryptococcus neoformans = experiment: Antifungal activity against Cryptococcus neoformans by CLSI based broth microdilution method; type: functional
# [16] = target: T1, Lanosterol 14-alpha demethylase; experiment: Inhibition of CYP51 of Candida albicans ATCC SC5314 assessed as decrease in ergosterol level by measuring residual activity at 2 ug/ml incubated for 16 hrs by GC-MS analysis (reference value: 98.3 %); conditions: at 2 µg/mL
# [17] = Cytotoxicity against human HL-60 cells by MTT assay; type: toxicity, cell-based
# [18] = target: T1, Lanosterol 14-alpha demethylase; experiment: Inhibition of CYP51 of Candida albicans ATCC SC5314 assessed as increase in lanosterol level at 8 ug/ml incubated for 16 hrs by GC-MS analysis (reference value: 1.7 %); set-up: scale not given: the % may be the effect or the level left; conditions: at 8 µg/mL
# [19] = target: T1, Lanosterol 14-alpha demethylase; experiment: Inhibition of CYP51 of Candida albicans ATCC SC5314 assessed as increase in eburicol level at 4 ug/ml incubated for 16 hrs by GC-MS analysis (reference value: 0 %); set-up: scale not given: the % may be the effect or the level left; conditions: at 4 µg/mL
# Candida albicans [20] = experiment: Antibiofilm activity against Candida albicans SC5314 assessed as sessile minimum inhibitory concentration measured after 6 hrs by XTT assay; type: functional
# Candida albicans [21] = experiment: Fungicidal activity against FCZ-resistant Candida albicans 901; type: functional
# [Candida] zeylanoides = Antifungal activity against Candida zeylanoides by CLSI based broth microdilution method; type: functional; conditions: Dujonia zeylanoides
# [22] = target: T1, Lanosterol 14-alpha demethylase; experiment: Inhibition of CYP51 of Candida albicans ATCC SC5314 assessed as increase in obtusifoliol level at 2 ug/ml incubated for 16 hrs by GC-MS analysis (reference value: 0 %); set-up: scale not given: the % may be the effect or the level left; conditions: at 2 µg/mL
# [23] = target: T1, Lanosterol 14-alpha demethylase; experiment: Inhibition of CYP51 of Candida albicans ATCC SC5314 assessed as increase in eburicol level at 1 ug/ml incubated for 16 hrs by GC-MS analysis (reference value: 0 %); set-up: scale not given: the % may be the effect or the level left; conditions: at 1 µg/mL
# Candida albicans [24] = experiment: Antifungal activity against FCZ-resistant Candida albicans 901 by CLSI based broth microdilution method; type: functional
# [25] = Cytotoxicity against human PC-3 cells by MTT assay; type: toxicity, cell-based
# [26] = target: T1, Lanosterol 14-alpha demethylase; experiment: Inhibition of CYP51 of Candida albicans ATCC SC5314 assessed as increase in lanosterol level at 1 ug/ml incubated for 16 hrs by GC-MS analysis (reference value: 1.7 %); set-up: scale not given: the % may be the effect or the level left; conditions: at 1 µg/mL
# Candida albicans [27] = experiment: Antibiofilm activity against Candida albicans CPCC400616 assessed as sessile minimum inhibitory concentration measured after 6 hrs by XTT assay; type: functional
# Candida albicans [28] = experiment: Antifungal activity against FCZ-resistant Candida albicans 17# by CLSI based broth microdilution method; type: functional
# Candida albicans [29] = experiment: Antibiofilm activity against Candida albicans CPCC400616 assessed as sessile minimum inhibitory concentration measured after 1.5 hrs by XTT assay; type: functional
# [30] = target: T1, Lanosterol 14-alpha demethylase; experiment: Inhibition of CYP51 of Candida albicans ATCC SC5314 assessed as increase in obtusifoliol level at 4 ug/ml incubated for 16 hrs by GC-MS analysis (reference value: 0 %); set-up: scale not given: the % may be the effect or the level left; conditions: at 4 µg/mL
# [31] = target: T1, Lanosterol 14-alpha demethylase; experiment: Inhibition of CYP51 of Candida albicans ATCC SC5314 assessed as increase in eburicol level at 8 ug/ml incubated for 16 hrs by GC-MS analysis (reference value: 0 %); set-up: scale not given: the % may be the effect or the level left; conditions: at 8 µg/mL
# [32] = Cytotoxicity against human MDA-MB-231 cells by MTT assay; type: toxicity, cell-based
# [33] = target: T1, Lanosterol 14-alpha demethylase; experiment: Inhibition of CYP51 of Candida albicans ATCC SC5314 assessed as increase in eburicol level at 2 ug/ml incubated for 16 hrs by GC-MS analysis (reference value: 0 %); set-up: scale not given: the % may be the effect or the level left; conditions: at 2 µg/mL
# Candida albicans [34] = experiment: Fungicidal activity against FCZ-resistant Candida albicans 904; type: functional
# Candida albicans [35] = experiment: Antibiofilm activity against Candida albicans CPCC400616 assessed as sessile minimum inhibitory concentration measured after 24 hrs by XTT assay; type: functional
# Candida albicans [36] = experiment: Antifungal activity against Candida albicans by CLSI based broth microdilution method; type: functional
# Candida albicans [37] = experiment: Antibiofilm activity against Candida albicans CPCC400616 assessed as sessile minimum inhibitory concentration measured after 3 hrs by XTT assay; type: functional
# Candida albicans [38] = experiment: Antifungal activity against FCZ-resistant Candida albicans 632 by CLSI based broth microdilution method; type: functional
# Candida albicans [39] = experiment: Antibiofilm activity against Candida albicans SC5314 assessed as sessile minimum inhibitory concentration measured after 24 hrs by XTT assay; type: functional
# [40] = target: T1, Lanosterol 14-alpha demethylase; experiment: Inhibition of CYP51 of Candida albicans ATCC SC5314 assessed as increase in lanosterol level at 4 ug/ml incubated for 16 hrs by GC-MS analysis (reference value: 1.7 %); set-up: scale not given: the % may be the effect or the level left; conditions: at 4 µg/mL
# Candida albicans [41] = experiment: Fungicidal activity against FCZ-resistant Candida albicans CaR; type: functional
smiles,measurement,setting,value
Clc1ccc(C(Cn2ccnc2)[Se]C(Cn2ccnc2)c2ccc(Cl)cc2)cc1 (stereo not given),MIC,Nakaseomyces glabratus,64 µg/mL
same,Activity,[1],23.8%
same,MFC,Candida albicans [2],32 µg/mL
same,MFC,Candida albicans [3],> 64 µg/mL
same,Activity,[4],3.7%
same,MFC,Candida albicans [5],4 µg/mL
same,MIC50,Candida albicans [6],0.5 µg/mL
same,MIC80,Candida albicans [6],2 µg/mL
same,Activity,[7],1%
same,MIC,Pichia kudriavzevii,16 µg/mL
same,MIC,Candida albicans [8],4 µg/mL
same,Activity,[9],15.4%
same,MIC50,Candida albicans [10],0.5 µg/mL
same,MIC80,Candida albicans [10],2 µg/mL
same,MFC,Candida albicans [11],2 µg/mL
same,MIC,Aspergillus fumigatus,> 64 µg/mL
same,MIC,Candida albicans [12],1 µg/mL
same,Activity,[13],64.7%
same,MIC,Candida albicans [14],1 µg/mL
same,MIC,Candida parapsilosis,2 µg/mL
same,Activity,[15],4.4%
same,MIC,Cryptococcus neoformans,> 64 µg/mL
same,Activity,[16],10.4%
same,IC50,[17],5.18 µM
same,Activity,[18],17%
same,Activity,[19],73.8%
same,MIC50,Candida albicans [20],0.5 µg/mL
same,MIC80,Candida albicans [20],4 µg/mL
same,MFC,Candida albicans [21],2 µg/mL
same,MIC,[Candida] zeylanoides,8 µg/mL
same,Activity,[22],18%
same,Activity,[23],29.3%
same,MIC,Candida albicans [24],1 µg/mL
same,IC50,[25],0.98 µM
same,Activity,[26],5.1%
same,MIC50,Candida albicans [27],1 µg/mL
same,MIC80,Candida albicans [27],2 µg/mL
same,MIC,Candida albicans [28],1 µg/mL
same,MIC50,Candida albicans [29],0.5 µg/mL
same,MIC80,Candida albicans [29],2 µg/mL
same,Activity,[30],9.5%
same,Activity,[31],55.5%
same,IC50,[32],3.25 µM
same,Activity,[33],56.2%
same,MFC,Candida albicans [34],1 µg/mL
same,MIC50,Candida albicans [35],2 µg/mL
same,MIC80,Candida albicans [35],4 µg/mL
same,MIC,Candida albicans [36],2 µg/mL
same,MIC50,Candida albicans [37],0.5 µg/mL
same,MIC80,Candida albicans [37],2 µg/mL
same,MIC,Candida albicans [38],2 µg/mL
same,MIC50,Candida albicans [39],0.5 µg/mL
same,MIC80,Candida albicans [39],2 µg/mL
same,Activity,[40],12.4%
same,MFC,Candida albicans [41],> 64 µg/mL
